Data set [1] is described as follows: Tmax in CD-1 mouse brain at 0.1 mg/kg, iv administered as bolus dose in presence of ENT1 inhibitor NBMPR-P. The data set is classed as ADME, organism-based. The arrangement: dose 0.1 mg/kg, route intravenous.
Data set [2] is described as follows: Tmax in CD-1 mouse brain at 0.1 mg/kg, iv administered as bolus dose in absence of ENT1 inhibitor NBMPR-P. The data set is classed as ADME, organism-based. The arrangement: dose 0.1 mg/kg, route intravenous.
Data set [3] deals with T1, Equilibrative nucleoside transporter 1 (Homo sapiens, UniProt Q99808).
T1 sequence (Q99808 whole entry): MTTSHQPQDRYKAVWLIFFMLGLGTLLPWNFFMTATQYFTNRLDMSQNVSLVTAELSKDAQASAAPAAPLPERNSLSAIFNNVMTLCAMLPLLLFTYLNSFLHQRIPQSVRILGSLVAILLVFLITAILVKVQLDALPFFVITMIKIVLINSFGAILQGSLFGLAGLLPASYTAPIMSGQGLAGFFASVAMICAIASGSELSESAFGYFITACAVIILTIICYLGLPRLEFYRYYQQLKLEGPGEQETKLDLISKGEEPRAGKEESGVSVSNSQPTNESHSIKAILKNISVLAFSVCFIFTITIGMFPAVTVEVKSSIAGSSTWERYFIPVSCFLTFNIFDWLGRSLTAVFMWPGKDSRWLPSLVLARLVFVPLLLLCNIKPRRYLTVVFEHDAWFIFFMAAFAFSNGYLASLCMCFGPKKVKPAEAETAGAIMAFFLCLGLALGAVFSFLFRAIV
Description: Binding affinity to recombinant human ENT1 expressed in Saccharomyces cerevisiae assessed as inhibition of [3H]-uridine transport after 15 mins by scintillation counting analysis. The data set is classed as ADME.

In data set [4] the target is T2, Equilibrative nucleoside transporter 2 (Homo sapiens, UniProt Q14542).
T2 sequence (Q14542 whole entry): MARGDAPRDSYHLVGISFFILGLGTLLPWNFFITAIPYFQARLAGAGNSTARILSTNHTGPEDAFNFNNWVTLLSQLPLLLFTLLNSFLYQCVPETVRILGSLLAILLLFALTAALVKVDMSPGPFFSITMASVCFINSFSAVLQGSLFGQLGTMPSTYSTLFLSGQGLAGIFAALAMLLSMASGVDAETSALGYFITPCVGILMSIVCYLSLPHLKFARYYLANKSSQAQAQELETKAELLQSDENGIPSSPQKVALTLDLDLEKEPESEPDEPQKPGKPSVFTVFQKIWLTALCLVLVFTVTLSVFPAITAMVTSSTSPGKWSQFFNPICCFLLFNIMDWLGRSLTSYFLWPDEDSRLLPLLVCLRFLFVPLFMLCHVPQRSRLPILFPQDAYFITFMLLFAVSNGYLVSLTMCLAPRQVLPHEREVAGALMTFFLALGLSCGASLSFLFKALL
In words: Binding affinity to recombinant human ENT2 expressed in Saccharomyces cerevisiae assessed as inhibition of [3H]-uridine transport after 15 mins by scintillation counting analysis. The data set is classed as ADME.

Data set [5] deals with T3, Sodium/nucleoside cotransporter 1 (Homo sapiens, UniProt O00337).
T3 sequence (O00337 whole entry): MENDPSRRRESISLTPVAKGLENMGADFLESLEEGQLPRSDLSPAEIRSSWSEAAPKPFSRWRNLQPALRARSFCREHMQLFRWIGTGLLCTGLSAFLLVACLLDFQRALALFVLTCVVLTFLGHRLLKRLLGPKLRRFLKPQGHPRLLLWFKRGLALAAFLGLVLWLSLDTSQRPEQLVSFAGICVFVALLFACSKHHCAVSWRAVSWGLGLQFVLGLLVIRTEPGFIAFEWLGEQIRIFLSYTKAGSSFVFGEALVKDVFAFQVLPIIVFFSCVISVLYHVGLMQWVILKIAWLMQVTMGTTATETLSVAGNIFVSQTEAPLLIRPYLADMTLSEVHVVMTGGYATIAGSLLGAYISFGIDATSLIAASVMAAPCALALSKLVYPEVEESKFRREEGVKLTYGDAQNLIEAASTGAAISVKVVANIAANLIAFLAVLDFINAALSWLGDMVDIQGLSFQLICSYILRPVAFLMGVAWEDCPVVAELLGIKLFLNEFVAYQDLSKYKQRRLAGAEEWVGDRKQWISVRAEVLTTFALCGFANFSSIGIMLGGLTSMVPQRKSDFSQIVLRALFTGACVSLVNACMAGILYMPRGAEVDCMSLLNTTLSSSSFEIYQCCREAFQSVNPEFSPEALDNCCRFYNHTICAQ
Description: Binding affinity to recombinant human CNT1 expressed in Saccharomyces cerevisiae assessed as inhibition of [3H]-uridine transport after 15 mins by scintillation counting analysis. The data set is classed as ADME.

Data set [6] deals with T1, Equilibrative nucleoside transporter 1. Description: Drug transport in human CCRF-CEM cells assessed as ENT1-mediated uptake measured per 10^6 cells after 5 secs by Michaelis-Menten equation analysis. The data set is classed as ADME, cell-based. The conditions noted are these: 5 s.
The next data set is filed under the species Xenopus laevis. Description: Drug uptake in water-injected Xenopus laevis oocytes up to 1 mM measured per 2 mins. The data set is classed as ADME, organism-based. The conditions noted are these: in vivo.
Data set [7] is described as follows: Cmax in CD-1 mouse brain at 0.1 mg/kg, iv administered as bolus dose in absence of ENT1 inhibitor NBMPR-P. The arrangement: dose 0.1 mg/kg, route intravenous. The data set is classed as ADME, organism-based.
A further data set has as its system Brain. Description: AUC (0 to 4 hrs) in CD-1 mouse brain at 0.1 mg/kg, iv administered as bolus dose in presence of ENT1 inhibitor NBMPR-P. The data set is classed as ADME, organism-based. Also noted: time < 4 hr, dose 0.1 mg/kg, route intravenous. The conditions noted are these: in vivo.
Data set [8] is described as follows: Apparent volume of distribution at steady state in CD-1 mouse at 0.1 mg/kg, iv administered as bolus dose in absence of ENT1 inhibitor NBMPR-P. The data set is classed as ADME, organism-based. The arrangement: dose 0.1 mg/kg, route intravenous. The conditions noted are these: in vivo, read-out: Vdss(app).
A short description of data set [9]: Apparent volume of distribution at steady state in CD-1 mouse at 0.1 mg/kg, iv administered as bolus dose in presence of ENT1 inhibitor NBMPR-P. The data set is classed as ADME, organism-based. Also noted: dose 0.1 mg/kg, route intravenous. The conditions noted are these: in vivo, read-out: Vdss(app).
The nature of data set [10]: Elimination half life in CD-1 mouse at 0.1 mg/kg, iv administered as bolus dose in presence of ENT1 inhibitor NBMPR-P. The arrangement: dose 0.1 mg/kg, route intravenous. The data set is classed as ADME, organism-based. The conditions noted are these: in vivo, read-out: beta t1/2 (converted).
Data set [11] is described as follows: AUC (0 to infinity) in CD-1 mouse at 0.1 mg/kg, iv administered as bolus dose in absence of ENT1 inhibitor NBMPR-P. The data set is classed as ADME, organism-based. The arrangement: time infinity, dose 0.1 mg/kg, route intravenous. The conditions noted are these: plasma.
A short description of data set [12]: AUC (0 to infinity) in CD-1 mouse at 0.1 mg/kg, iv administered as bolus dose in presence of ENT1 inhibitor NBMPR-P. The data set is classed as ADME, organism-based. The arrangement: time infinity, dose 0.1 mg/kg, route intravenous. The conditions noted are these: plasma.
The target in data set [13] is T4, ENT1 (equilibrative nucleoside transporter 1) (Homo sapiens, UniProt Q99808).
T4 sequence (Q99808 whole entry): T1 sequence (Q99808 whole entry)
Description: Drug transport in Xenopus laevis oocytes assessed as recombinant human ENT1-mediated uptake up to 1 mM by Michaelis-Menten equation analysis. The data set is classed as ADME, cell-based. The conditions noted are these: Xenopus laevis oocytes expressing recombinant human ENT1, read-out: Km(app).

The target of data set [14] is T4, ENT1 (equilibrative nucleoside transporter 1). Description: Drug transport in human CCRF-CEM cells assessed as ENT1-mediated uptake after 5 secs by Michaelis-Menten equation analysis. The data set is classed as ADME, cell-based.

The values that follow come from ChEMBL document CHEMBL3526052 (Drug Metab Dispos, 2013).

Consider `OC[C@H]1O[C@@H](n2cnc3c(N[C@@H]4CCOC4)ncnc32)[C@H](O)[C@@H]1O` [TECADENOSON], for which the Tmax in data set [1] was 11.4 min; in data set [2], 6.6 min. Further, the 50% inhibitory concentration (IC50) in data set [3] was found to be 12 µM; in data set [4], 190 µM; in data set [5], 41 µM. The results for the Ki in [3] (read-out: Ki(app)), in [4] (read-out: Ki(app)) and in data set [5] (read-out: Ki(app)) were 11 µM, 189 µM and 37 µM, respectively. For the same compound, the Vmax in data set [6] is listed as 3.4 pmol. This compound also registered a Drug uptake in the data set filed under Xenopus laevis of 5 pmol. The peak level in data set [7] (Cmax) was 23 ng/g. In addition, the AUC with Brain turned out to be 7 ng·h/g. Moreover, the results for the Vd in [8] and in [9] were 2.8 L/kg and 2.2 L/kg, respectively. In addition, the half-life in data set [10] was 66 min. Moreover, the AUC(0-inf) stood at 16.4 ng·h/mL in data set [11] and 50.5 ng·h/mL in [12]. The Km in data set [13] is 196 µM. Besides, the Km at 5 s in data set [14] came to 24 µM.

For orientation: Tmax means the time at which the peak concentration occurs. As a reminder, the IC50 is the concentration at which inhibition is half-maximal. One may read the Cmax as the maximum level reached in the sampled fluid or tissue. For orientation: AUC(0-inf) means total exposure, with the tail of the curve extrapolated. A word on the Km: it is the concentration of substrate that gives half-maximal velocity.
